Patent US6180622A, “Imidazo[5,1-b]thiazol-3-yl carbapenem antimicrobials” (priority 1996, dated 2001)
Values after ≈ are worked out from the molar mass of the structure shown. Where two headings read alike, the source gives them in different places.

How the values were obtained:
[1] = Stability against DHP-I (pig); assay type: in vitro ADME; conditions: kidney dhp-i, 100 μg (potency)/ml, 37° C., pH 7.0, read-out: residue (%) of the carbapenem derivative
Experimental: (§1) The stability of representative compounds, among the novel carbapenem derivatives of the present invention, against kidney dehydropeptidase-I (DHP-I) of a pig and a mouse was measured, and the residue (%) of the carbapenem derivatives three hr after the initiation of the test is summarized in Table 6.
(§2) 1.5 g of a kidney acetone powder (manufactured by Sigma) Porcine Type II (Lot. 33H7225) was suspended in 100 ml of 50 mM Tris-HCl buffer (pH 7.0) containing 20% butanol, and the suspension was stirred at 5° C. for 48 hr. The suspension was then dialyzed against 50 mM Tris-HCl buffer (pH 7.0) (a cellulose tube 30/32 Viskase Sales Corp.) until the odor of butanol disappeared, thereby removing butanol. The dialyzate is centrifuged at 10000×g (KUBOTA 6800) for 20 min, and the supernatant was obtained as a partially purified DHP-I. This partially purified DHP-I was subdivided and stored at -80° C. The above procedure was repeated, except that 1.5 g of Mouse (Lot. 23F8105) was used. Thus, a partially purified DHP-I was prepared and stored.
(§3) For the carbapenem as the substrate agent, a solution (2000 μg (potency)/ml) was prepared using sterilized, purified water. For the sample solution, the carbapenem (2000 μg (potency)/ml) solution was added to the partially purified DHP-I of each animal to a final concentration of 100 μg (potency)/ml). For the blank, 50 mM Tris-HCl buffer (pH 7.0) was used instead of the partially purified DHP-I of each animal. The reaction was allowed to proceed at 37° C. for 3 hr, and a given amount of the reaction mixture was sampled. Methanol in the same amount as the sampled reaction mixture was added under ice cooling to terminate the reaction. The reaction mixture was filtered through a filter (Sanprep LCR 13-LH manufactured by MILLIPORE) and subjected to HPLC (column: CAPCELL PACK C18SG120, manufactured by Shiseido Co., Ltd.; detection: UV; mobile layer: acetonitrile/10 mM aqueous acetic acid solution) to determined the residue (%).
(§4) Residue (%)=(Sample Peak Area/Blank Peak Area)×100

[2] = system: M. morganii 1510; test: Antimicrobial activity (minimum inhibitory concentration); assay type: cell-based; conditions: Morganella morganii
Experimental: (§5) For representative compounds among the novel carbapenem derivatives of the present invention, the minimum inhibitory concentration (MIC, μg/ml) against various pathogenic bacteria was measured in accordance with a method described in CHEMOTHERAPY, Vol. 16, No. 1, 99 (1968).

[3] = system: C. freundii GN346; test: as above; assay type: cell-based; conditions: Citrobacter freundii
Experimental: as §5

[4] = system: P. vulgaris GN76; test: as above; assay type: cell-based; conditions: Proteus vulgaris
Experimental: as §5

[5] = system: K. pneumoniae PCI602; test: as above; assay type: cell-based; conditions: Klebsiella pneumoniae
Experimental: as §5

[6] = system: S. aureus 209P JC-1; test: as above; assay type: cell-based; conditions: Staphylococcus aureus
Experimental: as §5

[7] = system: S. aureus M126; test: as above; assay type: cell-based; conditions: Staphylococcus aureus; S. aureus M126, highly meticillin-resistant strain
Experimental: as §5

[8] = system: E. coli NIHJ JC-2; test: as above; assay type: cell-based; conditions: Escherichia coli, NIHJJC2
Experimental: as §5

[9] = system: Ps. aeruginosa GN10362; test: as above; assay type: cell-based; conditions: Pseudomonas aeruginosa
Experimental: as §5

[10] = system: E. coli GN206; test: as above; assay type: cell-based; conditions: Escherichia coli
Experimental: as §5

[11] = system: E. cloacae G-0008; test: as above; assay type: cell-based; conditions: Enterobacter cloacae, G0008
Experimental: as §5

[12] = system: S. marcescens No. 1; test: as above; assay type: cell-based; conditions: Serratia marcescens
Experimental: as §5

[13] = Stability against DHP-I (mouse); assay type: in vitro ADME; conditions: kidney dhp-i, 100 μg (potency)/ml, 37° C., pH 7.0, read-out: residue (%) of the carbapenem derivative
Experimental: as §1, §2, §3, §4

[14] = P. vulgaris GN76, read-out: MIC
[15] = Ps. aeruginosa GN10362, read-out: MIC

## C[C@@H](O)[C@H]1C(=O)N2C(C(=O)O)=C(SCCN=CN)C[C@H]12 [Compound A, Imipenem, reference compound]
[1]
  remaining at 3 h: 24%
[2]
  MIC: 0.78 µg/mL (≈ 2.61 µM)
[3]
  MIC: 0.1 µg/mL (≈ 0.334 µM)
[4]; GN76
  MIC: 3.13 µg/mL (≈ 10.5 µM)
[5]
  MIC: 0.39 µg/mL (≈ 1.3 µM)
[6]
  MIC: < 0.025 µg/mL
[7]
  MIC: 50 µg/mL (≈ 167 µM)
[8]
  MIC: 0.1 µg/mL (≈ 0.334 µM)
[9]; GN10362
  MIC: 1.56 µg/mL (≈ 5.21 µM)
[10]
  MIC: 0.1 µg/mL (≈ 0.334 µM)
[11]
  MIC: 0.1 µg/mL (≈ 0.334 µM)
[12]
  MIC: 0.39 µg/mL (≈ 1.3 µM)
[13]
  remaining at 3 h: 0.6%

## CC(=N)N1CC[C@H](SC2=C(C(=O)O)N3C(=O)[C@H]([C@@H](C)O)[C@H]3C2)C1 [Compound B, Panipenem, reference compound]
[1]
  remaining at 3 h: 19%
[2]
  MIC: 0.78 µg/mL (≈ 2.3 µM)
[3]
  MIC: 0.2 µg/mL (≈ 0.589 µM)
[4]; [14]
  MIC: 3.13 µg/mL (≈ 9.22 µM)
[5]
  MIC: 0.2 µg/mL (≈ 0.589 µM)
[6]
  MIC: < 0.025 µg/mL
[7]
  MIC: 25 µg/mL (≈ 73.7 µM)
[8]
  MIC: 0.1 µg/mL (≈ 0.295 µM)
[9]; [15]
  MIC: 12.5 µg/mL (≈ 36.8 µM)
[10]
  MIC: 0.2 µg/mL (≈ 0.589 µM)
[11]
  MIC: 0.2 µg/mL (≈ 0.589 µM)
[12]
  MIC: 0.39 µg/mL (≈ 1.15 µM)
[13]
  remaining at 3 h: 28%

## C[C@@H](O)[C@H]1C(=O)N2C(C(=O)O)=C(S[C@@H]3CN[C@H](Cc4csc5cncn45)C3)[C@H](C)[C@H]12 [Ex. 20, (1R,5S,6S)-6-((1R)-1-Hydroxyethyl)-2-[(3S,5R)-5-(imidazo[5,1-b]thiazol-3-yl)methylpyrrolidin-3-yl]thio-1-methylcarbapen-2-em-3-carboxylic acid]
[1]
  remaining at 3 h: 100%
[13]
  remaining at 3 h: 97%

## C[C@@H](O)[C@H]1C(=O)N2C(C(=O)O)=C(S[C@@H]3CN[C@H](Cc4cn5c[n+](CC(N)=O)cc5s4)C3)[C@H](C)[C@H]12 [Ex. 26, (1R,5S,6S)-2-[(3S,5S)-5-[6-(Carbamoylmethyl)imidazo[5,1-b]thiazolium-2-yl]methylpyrrolidin-3-yl]thio-6-((1R)-1-hydroxyethyl)-1-methylcarbapen-2-em-3-carboxylic acid iodide]
[1]
  remaining at 3 h: 95%
[2]
  MIC: 0.39 µg/mL
[3]
  MIC: 0.05 µg/mL
[4]; [14]
  MIC: 0.39 µg/mL
[5]
  MIC: 0.1 µg/mL
[6]
  MIC: < 0.025 µg/mL
[7]
  MIC: 6.25 µg/mL
[8]
  MIC: 0.05 µg/mL
[9]; [15]
  MIC: 0.78 µg/mL
[10]
  MIC: 0.05 µg/mL
[11]
  MIC: 0.05 µg/mL
[12]
  MIC: 0.2 µg/mL
[13]
  remaining at 3 h: 90%
